Test results: patent publication US11987835B2, “Amino acid-sensing diguanylate cyclase and methods of use” (priority 2019, dated 2024)

How the values were obtained:
[1] = test system: Aer01 immigration into GF zebrafish; test: Migration rate experiments; format: in vivo; details: WT +/- valine
Procedure: Migration rate experiments. Strains were grown, shaking, overnight in TSB, at 30° C. Overnight cultures were pelleted and washed in sterile EM, then diluted to 1:100 in sterile EM, and incubated at room temperature for ˜2 hrs. If amino acid SpdE ligands were tested, amino acids were added to the prepared inoculum and fish flasks before the 2 hr incubation. GF zebrafish (5 or 6 dpf) inoculated with the cultures to yield ˜10^5 CFU/ml. The fish were then split into replicate flasks containing 10 fish and 10 ml inoculated flask EM. An EM sample was taken and plated immediately to quantify CFU/ml of the inoculating strain. […] After 24-48 hr incubation, colonies on plates were counted.
To more directly investigate differences in immigration rate, migration rate experiments were performed. Fish were mono-associated (inoculated with individual strains) via the EM, then 10 fish were dissected every 60 minutes, and the fraction of fish colonized at each time point was calculated (FIG. 3). […] This experiment assessed the ability of Aer01 variants to migrate into GF fish from the environment during initial colonization. […] After allowing 15 hrs for Aer01 to migrate from donor to recipient fish, the fish were dissected and determined the abundance of Aer01 in all fish within each flask (FIG. 6D).

[2] = test system: SpdE diguanylate cyclase activity in Aer01; test: Intracellular cyclic di-GMP quantification; format: cell-based, Aeromonas veronii; details: WT Aer01, 1 mM amino acid, ~4 hrs, versus no ligand
Procedure: Intracellular cyclic di-GMP quantification. […] Cultures were incubated, shaking, at 30° C. for 4 hours. Sample OD600 was measured and the entire volume pelleted. Sample pellets were resuspended in 300 μL ice cold extraction buffer (40/40/20 acetonitrile/methanol/water+0.1 N formic acid), iced for 30 min, then pelleted at maximum speed in tabletop microcentrifuge for 10 min. The supernatant was transferred to a new tube and stored at −80° until being vacuum concentrated until completely evaporated.
Dried samples were resuspended in 100 μL Ultra Performance liquid chromatography-grade water and centrifuged for two minutes at 18,000×g (Eppendorf® Centrifuge 5242R). The debris-free supernatants were moved to LCMS Certified Clear Glass 12×32 mm screw neck max recovery vials (Waters®). Ten microliters of each sample were analyzed using LC-MS/MS on a Quattro Premier XE mass spectrometer coupled with an Acquity Ultra Performance LC system (Waters®). Cyclic di-GMP was detected with electrospray ionization using multiple reaction monitoring in negative-ion mode at m/z 689.16→344.31. […]
In the case of SpdE, ligand binding to the PAS/Cache was hypothesized to regulate SpdE diguanylate cyclase activity, thereby altering intracellular levels of c-di-GMP. To test this, WT and ΔspdE Aer01 were incubated in the presence or absence of amino acid ligands for ˜4 hrs, then pelleted and lysed the cells to extract and quantify intracellular c-di-GMP.

Aer01 [3] = format: cell-based, Aeromonas veronii; details: WT Aer01, 1 mM ligand versus WT without ligand, mean
Procedure: Exploration Assay. Overnight cultures (TSB) of Aer01 Strains were pelleted (1 mL), and resuspended in 1 ml sterile EM. […] The cultures were incubated, shaking, at 30° C. for 3 hours. An aliquot of each culture was passed through a 0.2 μM filter (Corning® Costar® Spin-X® centrifuge tube filters) to generate cell-free supernatant. To a sterile 96-well plate round-bottom plate, 80 μL of unfiltered culture was added to each well to include five replicates for each condition. To another sterile 96-well plate round-bottom plate, 80 μL of the cell-free supernatant was added to each well to replicate the layout of the culture plate. Using a Rainin Liquidator™ 96-channel benchtop pipettor, 5 μL of the cell-free supernatant was pulled up into 20 μL Rainin pipette tips. These tips then were lowered down into the wells of the culture plate so the tips were submerged to half the depth of the culture volume in the wells. This set-up was incubated at room temperature for 30 min, during which time the cells in the culture can swim up into the supernatant in the pipette tips. After incubation, the contents of the tips were ejected into the wells of a sterile 96-well plate (Corning, flat-bottom, #3595) to which 195 μL of sterile TSB medium was added to each well. This plate was immediately placed in a FLUOstar Omega microplate reader (BMG Labtech, Offenburg, Germany) and growth curves monitored by measuring absorbance (600 nm) every 10 min for 12-16 hrs, with 30° C. incubation and constant shaking. The growth curves were plotted and the times at which the absorbance passed 0.5 was determined for each plot. The time difference between a particular condition and a reference condition (as indicated in FIG. 5C) represents the “exploration response” of Aer01 in that condition.
An “exploration assay” was used to measure population-level motility. For this assay Aer01 was incubated in the presence/absence of amino acid ligand (1 mM) for˜4 hrs, then the culture was added to the wells of a 96-well plate and pipette tips filled with the cell-free supernatant of the same cultures was lowered into the wells (FIG. 13). During a 30 min incubation period the Aer01 cells in the wells swam up into the pipette tips. […] To quantify the number of cells in the pipette tips after the 30 min exploration time, the contents of the pipette tips were ejected into the wells of a 96-well plate containing rich media and growth curves were monitored. […] This time difference between conditions, “exploration response,” was calculated to compare across many strains and conditions (FIG. 12C).

Aer01 [4] = format: cell-based, Aeromonas veronii
Procedure: Live imaging and quantification of Aer01 motility. […] EM containing proline or valine (pH adjusted to 7.8 with HCl/NaOH) was added to the wells to generate the desired final concentrations of amino acid (0, 1 nM, 10 nM, 100 nM, 1 μM, or 1 mM) and cell densities of OD 0.1, each performed in triplicate. The tray was covered by parafilm and incubated at 30° C. for 5 hours. Cells were imaged between hour 5-6. Prior to imaging, bacterial samples were moved to a temperature-controlled box housing the microscope, heated to 30° C. 2 ul of bacteria from treatments were applied to a well slide (MP Biomedicals 10-well multitest slides #096041805), covered with a coverslip, and imaged immediately. Videos of bacteria were captured using a Nikon Eclipse Ti inverted microscope on the GFP channel using 20× magnification at 39 frames per second. Videos of treated bacteria were analyzed with particle tracking software (Parthasarathy, Nature Methods 9:724-236, 2012) using these settings: “objects” were identified using bpfilter 3, nsize 7, and gradobjsize 0. A standard threshold of 3.99-6 was applied, depending on the degree of background. Motile bacteria were defined as objects tracked over at least 1 s (39 frames) with a standard deviation in position of pixels/frame of at least 1.
To do this, Aer01 was incubated in medium+/−ligand (ranging between 0 and 1 mM) then wet-mounted and imaged on an inverted microscope.

Aer01 [5] = test: Biofilm assay (crystal violet); format: cell-based, Aeromonas veronii; details: WT Aer01, 1 mM ligand, 48 hrs
Procedure: Biofilm Assay. […] To the wells of a sterile 96-well plate (Corning, flat-bottom, #3595), 150 μL of each resuspended culture was added, in triplicate. A blank control well was added for each condition using the appropriate uninoculated media. This plate was incubated at 30° C., stationary, for 48 hours. After incubation, the biofilms were quantified using a standard crystal violet biofilm staining procedure. […] Briefly, the supernatant was removed from each well, then the wells gently rinsed three times with 150 μL sterile EM. Then, 150 μL 0.1% crystal violet was added to each well and the plate was incubated at room temperature for 10 minutes, followed by five rinses with 150 μL sterile EM. To destain, 150 μL 95% ethanol was added to each well and the plate was incubated at room temperature for 10 minutes. Each well was mixed well and the contents transferred to a clean 96-well plate and the absorbance (570 nm) was read on a FLUOstar Omega microplate reader (BMG Labtech, Offenburg, Germany).

[6] = test system: Aer01 colonization of larval zebrafish gut; test: Bacterial competitions in vivo (competitive index); details: GF zebrafish, ligand supplemented into inoculum and flask medium (1 mM proline)
Procedure: Bacterial competitions in vivo. For in vivo bacterial competitions, strains (purified evolved isolates, or Aer01 genetic variants) were grown overnight in TSB from freezer stocks. 1 ml of the overnight cultures were pelleted (8,700 rcf, 2 min), then resuspended in 1 ml sterile EM. Competing strains were mixed, then added to flasks of 4 dpf GF (or CV fish) WT fish at ˜10^6 CFU/ml. For all competitions, sfGFP-tagged Aer01 was used as the “reference” strain. […] At 7 dpf, fish intestines were dissected as described above, and each intestine transferred into a 1.6 ml tube containing 500 μl sterile EM and ˜100 μl bullet beads, then bullet blended as described above. Homogenized samples were diluted appropriately in sterile EM, spread plated on TSA plates, incubated at 30° C. for 1-2 days, and the colonies counted. Strains were differentiated by fluorescence microscopy. Competitive index (CI) was calculated by dividing the strain ratio (test strain divided by reference strain) in the gut at the end of the competition by the strain ratio in the inoculum ((test/reference)gut/(test/reference)inoculum) (FIG. 1). The limit of detection is 5 CFU/gut; for samples were one strain was below the limit of detection, the abundance was set to 5 CFU in order to calculate a CI; this was the case for few of the samples.
To test whether WT motility, and therefore immigration into the host, could be increased with addition of ligands, competitions were performed as previously described, this time supplementing the inoculum and flask medium with SpdE ligand.

[7] = test system: Aer01 SpdE tandem PAS/dCache region (residues 37-287); test: Thermofluor (thermal shift) assay, Aer01 SpdE; format: binding, Aeromonas veronii; details: 10 mM pure amino acid, replicate ΔTm data
Procedure: Thermofluor Assay. The periplasmic portion of SpdE was cloned, expressed and purified in E. coli. Thermofluor assays were performed using a Thermo Fisher Scientific StepOnePlus Real-time PCR instrument. Each 20 μL sample contained 0.1 mg/mL SpdE protein, 4× SYPRO Orange dye, 165 mM NaCl, 80 mM Tris pH 7.5 and 10 mM ligand (free amino acid dissolved in water). All samples were done in triplicate and repeated 2-3 times on different days. All reagents and steps were performed at 4° C. and placed in 96 well PCR plates. The PCR plate was slowly heated (˜0.03° C./sec) from 4° C. to 80° C. in the StepOnePlus instrument and fluorescent measurements were taken every 8.5 sec. The resultant thermal shift curves were analyzed to find the inflexion points, which correspond to the melting temperature (Tm) of the protein (with or without ligand). Inflexion points were determined in Microsoft Excel by calculating the half way point between the minimum fluorescence value prior to fluorescence increase and the maximum fluorescence value. The Tm difference between protein with and without ligand was calculated and plotted to determine the thermal stability shift as a proxy for ligand binding.
In order to identify SpdE ligands, a thermal shift assay was conducted using 96-well Biolog Phenotype MicroArray plates as a high-throughput approach to screen compounds for ligand candidates. Using heterologously expressed and purified tandem PAS/dCache region of the protein (residues 37-287), ˜200 compounds were screened for ones that conferred a significant shift in protein thermal stability (see Table 4). […] For each curve, the melting temperature (Tm) was determined (brown circles), which corresponds to the midpoint of protein unfolding. The ΔTm (difference between test Tm and water control Tm) was calculated for each amino acid condition.

CC(C)[C@H](N)C(=O)O [valine]
immigration rate of WT Aer01 into fish [1]: migrated into the fish faster | intracellular c-di-GMP [2]: significantly lower | exploration response (Aer01 [3]): 13.2 min | number of motile cells (Aer01 [4]; WT Aer01, 1 μM and 1 mM ligand): striking increase | motility (Aer01 [4]; WT Aer01, below 1 μM ligand): little increase | biofilm formation (Aer01 [5]): more robust biofilms in the absence of ligand | median CI (competitive index) of ΔspdE versus WT [6]: 7 | thermal shift (ΔTm) in words [7]: largest shifts
